# How the values were obtained:
# [1] = tested on: C. difficile (NCTC 11204 and thirty-two clinical isolates); assay: Minimum Inhibitory Concentration (MIC) against C. difficile, microtiter plate, anaerobic, 48 hours; assay type: cell-based, Clostridium difficile
# Procedure: (§1) Compounds 4PYcq and 4PYOfi were screened against one NCTC strain and thirty-two clinical isolates of Clostridium difficile as described below.
# (§2) The antimicrobial compounds were prepared by adding 5.12 mg of each compound to 1 ml of DMSO. From each solution 100 μl was then aseptically transferred into 1 ml of sterile distilled water to give a concentration of 512 μg/ml. 100 μl of each diluted compound was then added to the first well of a sterile 96-well microliter plate. Serial dilutions were performed to give a concentration range spanning from 0 to 512 μg/ml of each compound. The microtiter plate containing the antimicrobials was left to equilibrate in an anaerobic cabinet for 3 hours before the addition of C. difficile cells. An overnight culture of C. difficile (NCTC 11204) was standardized to an OD^600 of 0.04 (approximately 10^6 CFU/ml), using Wilkins Chalgren broth and was vortexed for 60 seconds to ensure there was a uniform suspension. 100 μl of standardized culture was then added to each well of the microtiter plate, containing the equilibrated antimicrobials. The final concentrations of the antimicrobials in the wells therefore ranged from […] and the concentration of the culture was 10^5 CFU/ml in each well. The microtiter plate was incubated at 37° C., for 48 hours under anaerobic conditions. The MIC was determined as the lowest concentration of antimicrobial agent inhibiting the total growth of C. difficile cells. After incubation, the total solution from each well was aseptically spread onto a separate Wilkins chalgren agar plate. Plates were incubated for 48 hours, at 37° C., under anaerobic conditions. The number of colonies on each plate was counted after incubation and the MBC was determined as the lowest concentration of the antimicrobial agent at which 99.9% of organisms in the original inoculum were killed.
# [2] = tested on: C. difficile (NCTC 11204 and thirty-two clinical isolates); assay: Minimum Bactericidal Concentration (MBC) against C. difficile, 99.9% kill; assay type: cell-based, Clostridium difficile
# Procedure: as §1, §2
# [3] = tested on: Propionibacterium acnes; assay: MIC against Propionibacterium acnes, microtitre double dilution in BHI; assay type: cell-based
# Procedure: Compounds 4PYcq and 4PYOfi were screened against one NCTC stain and seven clinical isolates of Propionibacterium acnes as described below.
# Bacterial strains of Propionibacterium acnes, stored on beads at −20° C., were plated onto Brain heart infusion (BHI) agar plates. The cultures were incubated anaerobically for 4 days at 37° C.
# Bacterial suspensions were prepared by diluting bacterial suspensions with BHI to obtain bacterial concentrations approximately 2×10^6 cfu/ml.
# The test antimicrobial compounds were prepared by diluting the compound with appropriate nutrient broth to obtain correct stock solution. 50 μl of BHI were aliquoted onto the wells of the round-bottomed microtitre plate. 50 μl of the antimicrobial compounds were added onto the wells in the first column of the plate and several serial double dilutions were performed along the wells on each row. Following the series of double dilutions of the test compound the bacterial suspension were added onto each well except on the last column which served as a negative control. The lowest concentration of the test compound which inhibited bacterial growth was regarded as MIC of the compound.
# [4] = tested on: Acinetobater spp.; assay: activity against Acinetobacter spp.; assay type: cell-based; settings: Gram-negative bacterium
# [5] = Clostridium difficile Isolate 1
# [6] = Clostridium difficile Isolate 2
# [7] = Clostridium difficile Isolate 3
# [8] = Clostridium difficile Isolate 4
# [9] = Clostridium difficile Isolate 5
# [10] = Clostridium difficile Isolate 6
# [11] = Clostridium difficile Isolate 7
# [12] = Clostridium difficile Isolate 8
# [13] = Clostridium difficile Isolate 9
# [14] = Clostridium difficile Isolate 10
# [15] = Clostridium difficile Isolate 11
# [16] = Clostridium difficile Isolate 12
# [17] = Clostridium difficile Isolate 13
# [18] = Clostridium difficile Isolate 14
# [19] = Clostridium difficile Isolate 15
# [20] = Clostridium difficile Isolate 16
# [21] = Clostridium difficile Isolate 17
# [22] = Clostridium difficile Isolate 18
# [23] = Clostridium difficile Isolate 19
# [24] = Clostridium difficile Isolate 20
# [25] = Clostridium difficile Isolate 21
# [26] = Clostridium difficile Isolate 22
# [27] = Clostridium difficile Isolate 23
# [28] = Clostridium difficile Isolate 24
# [29] = Clostridium difficile Isolate 25
# [30] = Clostridium difficile Isolate 26
# [31] = Clostridium difficile Isolate 27
# [32] = Clostridium difficile Isolate 28
# [33] = Clostridium difficile Isolate 29
# [34] = Clostridium difficile Isolate 30
# [35] = Clostridium difficile Isolate 31
# [36] = Clostridium difficile Isolate 32
# [37] = Clostridium difficile NCTC 11204
compound,measurement,setting,value
NC(=NN=Cc1ccc([N+](=O)[O-])o1)c1cc[n+]([O-])cc1 (mixture of isomers) [Compound 4PYOfi],MIC,[1]; [5],16 to 32 µg/mL
same,MIC,[1]; [6],4 to 8 µg/mL
same,MIC,[1]; [7],8 to 16 µg/mL
same,MIC,[1]; [8],64 to 128 µg/mL
same,MIC,[1]; [9],2 to 4 µg/mL
same,MIC,[1]; [10],16 to 32 µg/mL
same,MIC,[1]; [11],32 to 64 µg/mL
same,MIC,[1]; [12],2 to 4 µg/mL
same,MIC,[1]; [13],128 to 256 µg/mL
same,MIC,[1]; [14],32 to 64 µg/mL
same,MIC,[1]; [15],2 to 4 µg/mL
same,MIC,[1]; [16],2 to 4 µg/mL
same,MIC,[1]; [17],64 to 128 µg/mL
same,MIC,[1]; [18],2 to 4 µg/mL
same,MIC,[1]; [19],2 to 4 µg/mL
same,MIC,[1]; [20],2 to 4 µg/mL
same,MIC,[1]; [21],1 to 2 µg/mL
same,MIC,[1]; [22],1 to 2 µg/mL
same,MIC,[1]; [23],8 to 16 µg/mL
same,MIC,[1]; [24],2 to 4 µg/mL
same,MIC,[1]; [25],16 to 32 µg/mL
same,MIC,[1]; [26],4 to 8 µg/mL
same,MIC,[1]; [27],2 to 4 µg/mL
same,MIC,[1]; [28],4 to 8 µg/mL
same,MIC,[1]; [29],2 to 4 µg/mL
same,MIC,[1]; [30],2 to 4 µg/mL
same,MIC,[1]; [31],16 to 32 µg/mL
same,MIC,[1]; [32],16 to 32 µg/mL
same,MIC,[1]; [33],4 to 8 µg/mL
same,MIC,[1]; [34],16 to 32 µg/mL
same,MIC,[1]; [35],4 to 8 µg/mL
same,MIC,[1]; [36],4 to 8 µg/mL
same,MIC,[1]; [37],2 to 4 µg/mL
same,MBC,[2]; [5],32 to 64 µg/mL
same,MBC,[2]; [6],16 to 32 µg/mL
same,MBC,[2]; [7],8 to 16 µg/mL
same,MBC,[2]; [8],64 to 128 µg/mL
same,MBC,[2]; [9],2 to 4 µg/mL
same,MBC,[2]; [10],16 to 32 µg/mL
same,MBC,[2]; [11],32 to 64 µg/mL
same,MBC,[2]; [12],8 to 16 µg/mL
same,MBC,[2]; [13],128 to 256 µg/mL
same,MBC,[2]; [14],32 to 64 µg/mL
same,MBC,[2]; [15],4 to 8 µg/mL
same,MBC,[2]; [16],4 to 8 µg/mL
same,MBC,[2]; [17],128 to 256 µg/mL
same,MBC,[2]; [18],4 to 8 µg/mL
same,MBC,[2]; [19],8 to 16 µg/mL
same,MBC,[2]; [20],4 to 8 µg/mL
same,MBC,[2]; [21],2 to 4 µg/mL
same,MBC,[2]; [22],1 to 2 µg/mL
same,MBC,[2]; [23],16 to 32 µg/mL
same,MBC,[2]; [24],4 to 8 µg/mL
same,MBC,[2]; [25],16 to 32 µg/mL
same,MBC,[2]; [26],4 to 8 µg/mL
same,MBC,[2]; [27],2 to 4 µg/mL
same,MBC,[2]; [28],4 to 8 µg/mL
same,MBC,[2]; [29],8 to 16 µg/mL
same,MBC,[2]; [30],2 to 4 µg/mL
same,MBC,[2]; [31],16 to 32 µg/mL
same,MBC,[2]; [32],16 to 32 µg/mL
same,MBC,[2]; [33],8 to 16 µg/mL
same,MBC,[2]; [34],16 to 32 µg/mL
same,MBC,[2]; [35],8 to 16 µg/mL
same,MBC,[2]; [36],8 to 16 µg/mL
same,MBC,[2]; [37],2 to 4 µg/mL
same,MIC,[3]; P. acnes Isolate 1,8 to 16 µg/mL
same,MIC,[3]; P. acnes Isolate 2,8 to 16 µg/mL
same,MIC,[3]; P. acnes Isolate 3,8 to 16 µg/mL
same,MIC,[3]; P. acnes Isolate 4,8 to 16 µg/mL
same,MIC,[3]; P. acnes Isolate 5,16 to 32 µg/mL
same,MIC,[3]; P. acnes Isolate 6,8 to 16 µg/mL
same,MIC,[3]; P. acnes Isolate 7,8 to 16 µg/mL
same,MIC,[3]; P. acnes NCTC 737,16 to 32 µg/mL
same,activity against Acinetobater spp. (in words),[4],inactive

# Source: patent US20080096894A1, “Anti-Bacterial Compounds” (ASTON UNIVERSITY, priority 2005, published 2008)
